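Each compound was tested at five concentrations against cells in 96-well plates for 48 hours. TGI marks complete inhibition of growth.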

Common to all, as to test: DTP human tumour cell line panel, 48 h
Assay [1] relates to SK-MEL-28 melanoma.
Assay [2] relates to K-562 leukemia.
The subject of assay [3] is SK-OV-3 ovarian.
Assay [4] deals with HOP-62 NSCLC.
Assay [5] concerns MDA-MB-231 breast.
Assay [6] concerns SF-295 CNS.
For assay [7], the system named is ACHN renal.
For assay [8], the system named is UO-31 renal.
For assay [9], the system named is CCRF-CEM leukemia.
Assay [10] concerns IGROV1 ovarian.
The test system of assay [11] is HCC-2998 colon.
Assay [12] relates to M14 melanoma.
The subject of assay [13] is EKVX NSCLC.
Assay [14] concerns A498 renal.
For assay [15], the system named is HL-60(TB) leukemia.
Assay [16] has as its system NCI-H23 lung.
The test system of assay [17] is U251 CNS.
The subject of assay [18] is MDA-N.
The test system of assay [19] is 786-0 renal.
In assay [20] the test system is HOP-92 NSCLC.

For `CCOC(=O)N1CCN(C(=O)Nc2cccc3ccccc23)CC1`, the TGI in [1], in assay [2], in [3], in assay [4], in [5] and in [6] was above 10 µM each time. For the same molecule, the TGI in assay [7], in assay [8], in assay [9], in [10], in assay [11] and in [12] was above 10 µM each time. The total growth inhibition concentration (TGI) in assay [13], in assay [14], in [15], in assay [16], in [17] and in assay [18] was above 10 µM each time.

On to `C=C(Br)CN(CC(=C)Br)C(C)=O`, for which the TGI in assay [1], in assay [2], in assay [3], in assay [4], in assay [5] and in assay [6] was above 100 µM throughout. Also, the total growth inhibition concentration (TGI) in assay [7], in assay [8], in assay [9], in assay [10], in assay [11] and in [12] was above 100 µM each time. Moreover, the TGI in assay [13], in assay [14], in assay [19], in [15], in assay [16] and in assay [17] was above 100 µM each time. In assay [18], this molecule returned a TGI above 100 µM.

In the case of `Cc1cc(C2(c3cc(C)c(O)c(C(=O)O)c3)OS(=O)(=O)c3ccccc32)cc(C(=O)O)c1O`, the TGI in assay [1], in [2], in assay [3], in [4], in assay [5] and in assay [6] was above 100 µM throughout. Besides, the total growth inhibition concentration (TGI) in assay [7], in [8], in assay [10], in assay [20], in [12] and in assay [13] was above 100 µM in each case. Also, the TGI in assay [14], in assay [19], in [15], in assay [17] and in assay [18] was above 100 µM in each case.

Take `NC(N)=NC(N)=Nc1c(F)c(F)c(F)c(F)c1F`: the TGI in assay [1], in [2], in assay [3], in assay [4], in assay [5] and in assay [6] was above 100 µM throughout. Further, the TGI in assay [7] was above 100 µM; in [8] it was above 100 µM; in assay [10] it was above 100 µM; in [20] it was above 100 µM; in [12], 48.4 µM; in assay [13], above 100 µM. Moreover, the TGI in assay [14], in assay [19], in assay [16], in assay [17] and in assay [18] was above 100 µM in each case.

For `O=[N+]([O-])/C(C(Cl)=C(Cl)Cl)=C1/OCCS1`, the concentration for total growth inhibition (TGI) in assay [1] is 96.5 µM; in [2] it was 77.7 µM; in assay [3], above 100 µM; in [4] it was 40.4 µM; in assay [5], 40.2 µM; in assay [6], 90.5 µM. For the same molecule, the TGI in [7] was 42.2 µM; in assay [8] it was 40.2 µM; in assay [9], 35.4 µM; in assay [10], 47.7 µM; in assay [11] it was above 100 µM; in assay [12], above 100 µM. Also, the TGI in [13] is above 100 µM; in [14], 36.8 µM; in assay [19], 38.6 µM; in assay [15] it was 37.6 µM; in assay [16], 72.4 µM; in [17], above 100 µM. Moreover, the TGI in assay [18] is above 100 µM.

On to `O=Cc1cc2c(o1)C(=O)c1ccccc1C2=O`, for which the TGI in assay [1] was 1.08 µM; in assay [3] it was 9.57 µM; in [4], 2.6 µM; in assay [5], above 30.2 µM; in assay [6], 0.813 µM; in assay [7], 7.96 µM. For the same molecule, the TGI in assay [8] amounted to 4.6 µM; in assay [9] it was 6.4 µM; in assay [10], 4.46 µM; in assay [11], 3.43 µM; in [12], 0.367 µM; in [13] it was 7.46 µM. Moreover, the TGI in [14] amounted to 9.44 µM; in [19], 2.9 µM; in assay [15], 1.15 µM; in assay [16], 0.465 µM; in assay [17] it was 2.73 µM; in [18], 0.352 µM.

As to `Cc1ccc(C(=O)C#Cc2cn(C3CC(O)C(CO)O3)c(=O)[nH]c2=O)cc1` (stereo not drawn), the TGI in assay [1], in assay [3], in [4], in assay [5], in assay [6] and in [7] was above 100 µM each time. The TGI is above 100 µM in assay [8]; above 100 µM in assay [10]; 65.1 µM in assay [20]; above 100 µM in assay [11]; above 100 µM in assay [12]; above 100 µM in assay [13]. Also, the TGI in assay [19], in [16], in [17] and in assay [18] was above 100 µM each time.

Turning to `Cc1ccc(NC(=O)CC(=O)n2nc(C)c(N=Nc3ccc(S(=O)(=O)CCOS(=O)(=O)O)cc3)c2C)cc1`, the TGI in assay [1], in [2], in assay [3], in assay [4], in assay [5] and in assay [6] was above 100 µM each time. Besides, the concentration for total growth inhibition (TGI) in assay [7], in [8], in assay [9], in [10], in [11] and in [12] was above 100 µM in each case. In addition, the concentration for total growth inhibition (TGI) in assay [13], in [14], in [19], in assay [15], in assay [16] and in [17] was above 100 µM in each case. Further, in assay [18], the TGI is above 100 µM.

A word on the TGI: it is the concentration at which net growth stops. Lower therefore signals more potent growth arrest.

These data come from PubChem BioAssay (NCI).
